{
  "source": "patent US7312330B2",
  "about": "“Bicycloheteroarylamine compounds as ion channel ligands and uses thereof” (Renovis, Inc., priority 2003, dated 2007)",
  "key": {"hVR1": {"molecular_target": "hVR1 (Homo sapiens, UniProt Q8NER1)", "sequence (Q8NER1 whole entry)": "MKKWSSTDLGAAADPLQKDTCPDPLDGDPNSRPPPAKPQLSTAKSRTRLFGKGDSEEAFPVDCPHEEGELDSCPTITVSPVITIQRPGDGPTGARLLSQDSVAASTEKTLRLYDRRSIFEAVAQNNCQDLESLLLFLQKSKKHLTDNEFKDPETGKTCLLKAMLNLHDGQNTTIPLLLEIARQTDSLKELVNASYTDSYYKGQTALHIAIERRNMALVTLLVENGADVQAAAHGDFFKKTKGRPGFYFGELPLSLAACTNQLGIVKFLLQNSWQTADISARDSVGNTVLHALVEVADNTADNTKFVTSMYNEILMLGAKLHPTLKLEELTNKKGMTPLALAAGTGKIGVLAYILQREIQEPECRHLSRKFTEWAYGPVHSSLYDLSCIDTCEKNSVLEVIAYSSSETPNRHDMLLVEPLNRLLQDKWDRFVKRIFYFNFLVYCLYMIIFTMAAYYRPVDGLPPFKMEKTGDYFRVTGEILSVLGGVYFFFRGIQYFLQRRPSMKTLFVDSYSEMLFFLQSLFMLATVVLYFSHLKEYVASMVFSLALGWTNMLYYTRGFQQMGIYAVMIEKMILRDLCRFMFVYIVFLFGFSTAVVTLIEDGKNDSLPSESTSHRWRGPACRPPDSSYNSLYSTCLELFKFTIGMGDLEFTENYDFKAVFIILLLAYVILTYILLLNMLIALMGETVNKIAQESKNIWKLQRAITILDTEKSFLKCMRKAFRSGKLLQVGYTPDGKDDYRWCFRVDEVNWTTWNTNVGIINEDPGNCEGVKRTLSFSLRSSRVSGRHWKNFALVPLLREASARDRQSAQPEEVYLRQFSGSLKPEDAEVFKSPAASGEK", "test": "Calcium imaging assay (Fura2) of VR1 antagonists, proton stimulation", "format": "cell-based", "conditions": "HEK 293 cells expressing hVR1; for % Inhibition @ 1 μM: calcium ion influx induced by proton stimulation (pH 5.7); for IC50: calcium ion influx induced by proton stimulation", "procedure,_shortened": "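HEK293 cells expressing capsaicin-insensitive hVR1 were loaded with Fura2 (5 μg/mL, 37 °C, 40 min). Compound was added, then compound plus acid agonist (10 mM citric acid, pH 5.7), with the 340/380 nm ratio read every 4 s for 3 min. Peak-minus-baseline response gave % inhibition and an ID50 from dose-response curves.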"}, "HsVR1": {"molecular_target": "T1, HsVR1 (Homo sapiens, UniProt Q8NER1)", "T1 construct": "expressed in transfected cells; host or cells: Xenopus oocytes injected with HsVR1 RNA", "T1 sequence (Q8NER1 whole entry)": "as above", "test": "Two-electrode voltage clamp recording of capsaicin induced VR1 current in Xenopus oocytes", "format": "cell-based", "conditions": "250 nM capsaicin induced current; Xenopus oocytes injected with HsVR1 RNA; read-out: EPHYS IC50", "protocol": "Xenopus ovaries obtained from NASCO were isolated by enzymatic dissociation using collagenase (Worthington, 2 mg/ml). Oocytes were then individually injected with HsVR1 RNA (0.5 μg/μl). Injected oocytes are stored in standard oocyte incubation solution, ND96, containing 96 mM NaCl, 2 mM KCl, 1 mM MgCl2, 0.3 mM CaCl2 and 50 µg/ml Gentamicin at 16° C. Capsaicin induced VR1 current is observed in oocytes 4-5 days after injection. Eight oocytes are placed in the recording chambers. Each oocyte is impaled by 2 glass electrodes having resistances of 0.5 to 1 MOhm when filled with a 3 M KCl solution. Electrode advancement and oocyte impalement are under software control (OpusXpress 1.1, Axon Instruments). VR1 expression in the oocytes is verified using 250 nM capsaicin. Test solution delivery to the oocytes during the experiment is also under software control. The solutions are prepared in 96 well plates and robotically pipetted into the oocyte recording chambers by an 8 channel pipetter. Oocytes are exposed to several 250 μl applications of 250 nM capsaicin until a stable current amplitude is obtained with each application. A set of 96 well plates containing the test solutions is prepared so that the sequence of solution application to the oocyte is as follows: 250 μls of 250 nM capsaicin is followed by a several minute wash with standard oocyte saline. 1 ml of the test compound is then added at a particular test concentration, followed immediately by 250 μl of the compound at the same concentration plus 250 nM capsaicin. The capsaicin induced VR1 current is recorded in the presence and absence of test compound for each concentration. The standard test concentrations range from 0.3 to 2000 nM. Quantitative measurement of VR1 current block was carried out by calculating the area under the curve described by the inward current. The resulting numbers for capsaicin induced currents in the presence of increasing compound concentration are normalized to the maximum current obtained. These points are then plotted on a logarithmic scale and fitted by a Hill function. The IC50 values for each compound tested were then calculated from the resulting Hill fit. All compounds that inhibited capsaicin induced current greater than 50% were considered positives."}},
  "data": [
    {"smiles": "CS(=O)(=O)c1cccnc1N1CCc2c(ncnc2Nc2ccc(S(=O)(=O)C(F)(F)F)cc2)C1", "note": "[Example 23, 7-(3-Methanesulphonylpyridin-2-yl)-N-(4-(trifluoromethylsulphonyl)phenyl)-5,6,7,8-tetrahydropyrido[3,4-d]pyrimidin-4-amine]", "values": [
      {"measurement": "% Inhibition @ 1 μM", "setting": "hVR1", "result": "++++ (compound exhibited 76% or greater inhibition of calcium ion influx induced by proton stimulation)"},
      {"measurement": "IC50", "setting": "hVR1", "result": "101 to 500", "unit": "nM"},
      {"measurement": "IC50", "setting": "HsVR1", "result": "101 to 500", "unit": "nM"}
    ]},
    {"smiles": "FC(F)(F)c1ccc(Nc2nccc3c2CCN(c2ncccc2Cl)C3)cc1", "note": "[Example 26, 6-(3-Chloropyridin-2-yl)-N-(4-(trifluoromethyl)phenyl)-5,6,7,8-tetrahydro-2,6-naphthyridin-1-amine]", "values": [
      {"measurement": "% Inhibition @ 1 μM", "setting": "hVR1", "result": "+ (compound exhibited 0-25% inhibition of calcium ion influx induced by proton stimulation)"},
      {"measurement": "IC50", "setting": "HsVR1", "result": "> 1000", "unit": "nM"}
    ]},
    {"smiles": "CSc1nc2c(c(Nc3ccc(C(C)(C)C)cc3)n1)CCN(c1ncccc1Cl)C2", "note": "[Example 28, N-(4-tert-Butylphenyl)-7-(3-chloropyridin-2-yl)-5,6,7,8-tetrahydro-2-(methylthio)pyrido[3,4-d]pyrimidin-4-amine]", "values": [
      {"measurement": "% Inhibition @ 1 μM", "setting": "hVR1", "result": "++++ (compound exhibited 76% or greater inhibition of calcium ion influx induced by proton stimulation)"},
      {"measurement": "IC50", "setting": "hVR1", "result": "< 100", "unit": "nM"},
      {"measurement": "IC50", "setting": "HsVR1", "result": "< 100", "unit": "nM"}
    ]},
    {"smiles": "COc1nc2c(c(Nc3ccc(C(C)(C)C)cc3)n1)CCN(c1ncccc1Cl)C2", "note": "[Example 29, N-(4-tert-Butylphenyl)-7-(3-chloropyridin-2-yl)-5,6,7,8-tetrahydro-2-methoxypyrido[3,4-d]pyrimidin-4-amine]", "values": [
      {"measurement": "% Inhibition @ 1 μM", "setting": "hVR1", "result": "++++ (compound exhibited 76% or greater inhibition of calcium ion influx induced by proton stimulation)"},
      {"measurement": "IC50", "setting": "hVR1", "result": "< 100", "unit": "nM"},
      {"measurement": "IC50", "setting": "HsVR1", "result": "< 100", "unit": "nM"}
    ]},
    {"smiles": "FC(F)(F)c1ccc(Nc2nc(NCCN3CCOCC3)nc3c2CCN(c2ncccc2Cl)C3)cc1", "note": "[Example 33, 7-(3-Chloropyridin-2-yl)-N^4-(4-(trifluoromethyl)phenyl)-5,6,7,8-tetrahydro-N^2-(2-morpholinoethyl)pyrido[3,4-d]pyrimidine-2,4-diamine]", "values": [
      {"measurement": "% Inhibition @ 1 μM", "setting": "hVR1", "result": "+ (compound exhibited 0-25% inhibition of calcium ion influx induced by proton stimulation)"},
      {"measurement": "IC50", "setting": "HsVR1", "result": "501 to 1000", "unit": "nM"}
    ]},
    {"smiles": "CN(C)c1nc2c(c(Nc3ccc(C(F)(F)F)cc3)n1)CCN(c1ncccc1Cl)C2", "note": "[Example 34, 7-(3-Chloropyridin-2-yl)-N^4-(4-(trifluoromethyl)phenyl)-5,6,7,8-tetrahydro-N^2N^2-dimethylpyrido[3,4-d]pyrimidine-2,4-diamine]", "values": [
      {"measurement": "% Inhibition @ 1 μM", "setting": "hVR1", "result": "+ (compound exhibited 0-25% inhibition of calcium ion influx induced by proton stimulation)"},
      {"measurement": "IC50", "setting": "hVR1", "result": "101 to 500", "unit": "nM"},
      {"measurement": "IC50", "setting": "HsVR1", "result": "501 to 1000", "unit": "nM"}
    ]},
    {"smiles": "COCc1nc2c(c(Nc3ccc(C(F)(F)F)cc3)n1)CCN(c1ncccc1Cl)C2", "note": "[Example 35, 7-(3-Chloropyridin-2-yl)-N-(4-(trifluoromethyl)phenyl)-5,6,7,8-tetrahydro-2-(methoxymethyl)pyrido[3,4-d]pyrimidin-4-amine]", "values": [
      {"measurement": "% Inhibition @ 1 μM", "setting": "hVR1", "result": "++++ (compound exhibited 76% or greater inhibition of calcium ion influx induced by proton stimulation)"},
      {"measurement": "IC50", "setting": "HsVR1", "result": "101 to 500", "unit": "nM"}
    ]},
    {"smiles": "Clc1cccnc1N1CCc2c(ncnc2NCCc2ccccc2)C1", "note": "[Example 39, 7-(3-Chloropyridin-2-yl)-5,6,7,8-tetrahydro-N-phenethylpyrido[3,4-d]pyrimidin-4-amine]", "values": [
      {"measurement": "% Inhibition @ 1 μM", "setting": "hVR1", "result": "++++ (compound exhibited 76% or greater inhibition of calcium ion influx induced by proton stimulation)"},
      {"measurement": "IC50", "setting": "hVR1", "result": "101 to 500", "unit": "nM"},
      {"measurement": "IC50", "setting": "HsVR1", "result": "> 1000", "unit": "nM"}
    ]},
    {"smiles": "Cc1ccccc1N1CCc2c(ncnc2Nc2ccc(C(F)(F)F)cc2)C1", "note": "[Example 45, 7-(o-Tolyl)-N-(4-(trifluoromethyl)phenyl)-5,6,7,8-tetrahydropyrido[3,4-d]pyrimidin-4-amine]", "values": [
      {"measurement": "% Inhibition @ 1 μM", "setting": "hVR1", "result": "++++ (compound exhibited 76% or greater inhibition of calcium ion influx induced by proton stimulation)"},
      {"measurement": "IC50", "setting": "hVR1", "result": "< 100", "unit": "nM"},
      {"measurement": "IC50", "setting": "HsVR1", "result": "< 100", "unit": "nM"}
    ]}
  ]
}
